This passage reports IC50 results from patent US7973061B2, “Anaplastic lymphoma kinase modulators and methods of use” (Exelixis, Inc., priority 2004, dated 2011).

The target in this test is T1, ALK (baculovirus expressed human ALK kinase domain F1098-K1410) (Homo sapiens, UniProt Q9UM73).
T1 construct: human ALK kinase domain F1098-K1410; made in house
T1 sequence (Q9UM73 1098-1410): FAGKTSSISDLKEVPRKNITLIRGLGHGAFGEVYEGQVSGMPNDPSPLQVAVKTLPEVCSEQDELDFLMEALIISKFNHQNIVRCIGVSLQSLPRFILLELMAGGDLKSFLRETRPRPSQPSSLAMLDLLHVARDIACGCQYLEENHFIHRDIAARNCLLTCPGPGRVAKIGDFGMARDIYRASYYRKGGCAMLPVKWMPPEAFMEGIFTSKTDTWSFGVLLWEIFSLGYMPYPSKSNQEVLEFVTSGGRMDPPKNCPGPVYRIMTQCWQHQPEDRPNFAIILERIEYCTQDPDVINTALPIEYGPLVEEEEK
Nature of the test: biochemical. The following applies: 1 μM ATP, 4 μM poly-AEKY, 12 nM ALK, 2 hours at ambient temperature; read-out: ALK IC50. The gist of the method: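 Baculovirus-expressed human ALK kinase domain (F1098-K1410) was run in a luciferase-coupled chemiluminescent format, with ATP near its KM. After 2 h at ambient temperature, remaining ATP was read by luciferase-luciferin luminescence. IC50 came from 10-point dose-response curves fitted to a four-parameter equation with Hill slope.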
In general, IC50 refers to the concentration needed to halve the response being measured. With `CCCCNC(=O)c1csc(CNC(=O)COc2ccc(OC(F)(F)F)cc2)n1` [Entry 177, N-butyl-2-({[({4-[(trifluoromethyl)oxy]phenyl}oxy)acetyl]amino}methyl)-1,3-thiazole-4-carboxamide], the IC50 lay in the range of 50 to 500 nM.

For `CN(CCCNC(=O)c1csc(CNC(=O)COc2ccc(OC(F)(F)F)cc2)n1)c1ccccc1` [Entry 107, N-{3-[methyl(phenyl)amino]propyl}-2-({[({4-[(trifluoromethyl)oxy]phenyl}oxy)acetyl]amino}methyl)-1,3-thiazole-4-carboxamide], the IC50 fell in the range of 50 to 500 nM.

Regarding `COc1ccc([C@H](C)NC(=O)c2csc(CNC(=O)COc3ccc(OC(F)(F)F)cc3)n2)cc1` [Entry 183, N-{(1S)-1-[4-(methyloxy)phenyl]ethyl}-2-({[({4-[(trifluoromethyl)oxy]phenyl}oxy)acetyl]amino}methyl)-1,3-thiazole-4-carboxamide], the half-maximal inhibitory concentration (IC50) lay in the range of 50 to 500 nM.

On to `COc1ccc(CNC(=O)c2csc(CNC(=O)COc3ccc(OC(F)(F)F)cc3)n2)cc1OC` [Entry 187, N-{[3,4-bis(methyloxy)phenyl]methyl}-2-({[({4-[(trifluoromethyl)oxy]phenyl}oxy)acetyl]amino}methyl)-1,3-thiazole-4-carboxamide], for which the half-maximal inhibitory concentration (IC50) was 50 to 500 nM.

For `CC(CCc1ccccc1)NC(=O)c1csc(CNC(=O)COc2ccc(OC(F)(F)F)cc2)n1` (stereo not shown) [Entry 152, N-(1-methyl-3-phenylpropyl)-2-({[({4-[(trifluoromethyl)oxy]phenyl}oxy)acetyl]amino}methyl)-1,3-thiazole-4-carboxamide], the concentration for half-maximal inhibition (IC50) lay in the range of 50 to 500 nM.

Turning to `O=C(COc1ccc(OC(F)(F)F)cc1)NCc1nc(C(=O)NCCc2ccccn2)cs1` [Entry 77, N-(2-pyridin-2-ylethyl)-2-({[({4-[(trifluoromethyl)oxy]phenyl}oxy)acetyl]amino}methyl)-1,3-thiazole-4-carboxamide], the half-inhibitory concentration (IC50) was 50 to 500 nM.

In the case of `Cc1ccc(C)c(CCNC(=O)c2csc(CNC(=O)COc3ccc(OC(F)(F)F)cc3)n2)c1` [Entry 33, N-[2-(2,5-dimethylphenyl)ethyl]-2-({[({4-[(trifluoromethyl)oxy]phenyl}oxy)acetyl]amino}methyl)-1,3-thiazole-4-carboxamide], the half-inhibitory concentration (IC50) fell in the range of 50 to 500 nM.
